Assay results taken from patent publication US20250268826A1, “IONIZABLE LIPIDOID COMPOSITIONS AND THERAPEUTIC USES THEREOF” (Flagship Pioneering Innovations VII, LLC, priority 2023, published 2025).

Key:
Type in all cases: physicochemical
[1] = Encapsulation efficiency (EE %) by fluorescence based Ribogreen assay
[2] = LNP size and polydispersity index (PDI) by dynamic light scattering (DLS)
[3] = LNP Zeta potential measured using a Zetasizer (Malvern); conditions: for Zeta potential: hEPO mRNA, N:P 6; for Zeta potential (mV): Table 11, LNP with hEPO mRNA, Lipid:DSPC:Cholesterol:DMG-PEG2k 50:10:38.5:1.5 mol % (ALC-0315: 46.3:9.4:42.7:1.6), N:P ratio 6, HEPES/sodium chloride/sucrose buffer, stored at −80C
[4] = Table 8, LNP 50:10:38.5:1.5 mol %, hEPO mRNA, N:P 6
[5] = Table 8, LNP Lipid:DSPC:Cholesterol:DMG-PEG2k 50:10:38.5:1.5 mol %, hEPO mRNA, N:P 6
[6] = Table 8, LNP 50:10:38.5:1.5 mol %
[7] = Table 6, LNP 50:10:38.5:1.5 mol %, hEPO mRNA, N:P 6
[8] = Table 6, LNP 60:0:38.5:1.5 mol %, hEPO mRNA, N:P 6
[9] = Table 6, LNP lipid:DSPC:Cholesterol:DMG-PEG2k 50:10:38.5:1.5 mol %, hEPO mRNA, N:P 6
[10] = Table 6, LNP 50:10:38.5:1.5 mol %
[11] = Table 6, LNP 60:0:38.5:1.5 mol %
[12] = Table 9, LNP 50:10:38.5:1.5 mol %, hEPO mRNA, N:P 6
[13] = Table 9, LNP Lipid:DSPC:Cholesterol:DMG-PEG2k 50:10:38.5:1.5 mol %, hEPO mRNA, N:P 6
[14] = Table 9, LNP 50:10:38.5:1.5 mol %
[15] = Table 1, LNP lipid:DSPC:Cholesterol:DMG-PEG2k 50:10:38.5:1.5 mol %, hEPO mRNA, N:P 6
[16] = Table 1, LNP lipid:DSPC:Cholesterol:DMG-PEG2k 50:10:38.5:1.5 mol %
[17] = Table 5, LNP 50:10:38.5:1.5 mol %, hEPO mRNA, N:P 6
[18] = Table 5, LNP Lipid:DSPC:Cholesterol:DMG-PEG2k 50:10:38.5:1.5 mol %, hEPO mRNA, N:P 6
[19] = Table 5, LNP 50:10:38.5:1.5 mol %
[20] = Table 11, LNP with hEPO mRNA, Lipid:DSPC:Cholesterol:DMG-PEG2k 50:10:38.5:1.5 mol % (ALC-0315: 46.3:9.4:42.7:1.6), N:P ratio 6, HEPES/sodium chloride/sucrose buffer, stored at −80C
[21] = Table 5, LNP 60:0:38.5:1.5 mol %, hEPO mRNA, N:P 6
[22] = Table 5, LNP 60:0:38.5:1.5 mol %
[23] = Table 7, LNP 30:10:58.5:1.5 mol %, helper lipid DOPC, hEPO mRNA, N:P 6
[24] = Table 7, LNP 30:10:58.5:1.5 mol %, helper lipid DOPE, hEPO mRNA, N:P 6
[25] = Table 7, LNP 30:10:58.5:1.5 mol %, helper lipid DSPC, hEPO mRNA, N:P 6
[26] = Table 7, LNP 50:10:38.5:1.5 mol %, helper lipid DOPC, hEPO mRNA, N:P 6
[27] = Table 7, LNP 50:10:38.5:1.5 mol %, helper lipid DOPE, hEPO mRNA, N:P 6
[28] = Table 7, LNP 50:10:38.5:1.5 mol %, helper lipid DSPC, hEPO mRNA, N:P 6
[29] = Table 3, LNP 50:10:38.5:1.5 mol %, hEPO mRNA, N:P 6

CCCCCCCCC(CCCCCC)C(=O)OCCN(CCOC(=O)C(CCCCCC)CCCCCCCC)C(=O)CCCN(C)CC.Cl (centres unmarked) [Compound 936]
Encapsulation Efficiency % [1, 4]: 99.9%
PDI [2, 4]: 0.175
Size [2, 5]: 110.1 nm
Zeta potential [3, 6]: −10.7 mV

CCCCCCCCC(CCCCCC)C(=O)OCCN(CCOC(=O)C(CCCCCC)CCCCCCCC)C(=O)CCCN(C)C (centres unmarked) [Compound 807]
Encapsulation Efficiency % [1, 7]: 98.3%
Encapsulation Efficiency % [1, 8]: 99.7%
PDI [2, 7]: 0.126
PDI [2, 8]: 0.079
Size [2, 8]: 114.7 nm
Size [2, 9]: 77.7 nm
Zeta potential [3, 10]: −1.9 mV
Zeta potential [3, 11]: −0.6 mV

CCCCCCCCC(CCCCCC)C(=O)OCCN(CCOC(=O)C(CCCCCC)CCCCCCCC)C(=O)C(C)CNCCC.Cl (centres unmarked) [Compound 928]
Encapsulation Efficiency % [1, 4]: 91.8%
PDI [2, 4]: 0.177
Size [2, 5]: 75.5 nm
Zeta potential [3, 6]: −11.9 mV

CCCCCCCCC(CCCCCC)C(=O)OCCN(CCOC(=O)C(CCCCCC)CCCCCCCC)C(=O)CCCN1CCCCC1.Cl (centres unmarked) [Compound 983]
Encapsulation Efficiency % [1, 4]: 97.1%
PDI [2, 4]: 0.114
Size [2, 5]: 90.4 nm
Zeta potential [3, 6]: −15.9 mV

CCCCCCCCC(CCCCCC)C(=O)OCCN(CCOC(=O)C(CCCCCC)CCCCCCCC)C(=O)CN(CC)CCC.Cl (single isomer, unassigned) [Compound 960a]
Encapsulation Efficiency % [1, 12]: 99.7%
PDI [2, 12]: 0.125
Size [2, 13]: 77.4 nm
Zeta potential [3, 14]: −28.49 mV

CCCCCCCCCCCC(=O)OCCN(CCOC(=O)CCCCCCCCCCC)C(=O)C(N)CCCCN (centres unmarked) [Compound 121]
Encapsulation Efficiency % [1, 15]: 93.1%
Size [2, 15]: 105.4 nm
Zeta potential [3, 16]: 8.346 mV

CCCCCCCCCCC(CCCC)C(=O)OCCN(CCOC(=O)C(CCCC)CCCCCCCCCC)C(=O)C(C)N (centres unmarked) [Compound 612]
Encapsulation Efficiency % [1, 17]: 99.8%
PDI [2, 17]: 0.403
Size [2, 18]: 69.9 nm
Zeta potential [3, 19]: −3.371 mV

CCCCCCCCC(CCCCCC)C(=O)OCCN(CCOC(=O)C(CCCCCC)CCCCCCCC)C(=O)CCCN1CCCC1.Cl (centres unmarked) [Compound 982]
Encapsulation Efficiency % [1, 4]: 99.9%
PDI [2, 4]: 0.081
Size [2, 5]: 120.5 nm
Zeta potential [3, 6]: −14.2 mV

CCCCCCCCC(CCCCCC)C(=O)OCCN(CCOC(=O)C(CCCCCC)CCCCCCCC)C(=O)CCCN(C)CCC.Cl (centres unmarked) [Compound 939]
Encapsulation Efficiency % [1, 4]: 98.5%
PDI [2, 4]: 0.172
Size [2, 5]: 103.5 nm
Zeta potential [3, 6]: −14.9 mV

CCCCCCCCC(CCCCCC)C(=O)OCCN(CCOC(=O)C(CCCCCC)CCCCCCCC)C(=O)CCCN (centres unmarked) [Compound 804]
Encapsulation Efficiency % [1, 7]: 98.3%
Encapsulation Efficiency % [1, 8]: 99.9%
PDI [2, 7]: 0.281
PDI [2, 8]: 0.147
Size [2, 8]: 81.1 nm
Size [2, 9]: 96 nm
Zeta potential [3, 10]: −1.7 mV
Zeta potential [3, 11]: 2.8 mV

CCCCCCCCC(CCCCCC)C(=O)OCCN(CCOC(=O)C(CCCCCC)CCCCCCCC)C(=O)C(C)CCNCCC.Cl (centres unmarked) [Compound 987h]
Encapsulation Efficiency % [1, 20]: 99.4%
PDI [2, 20]: 0.099
Size (nm) [2, 20]: 69.1 nm
Zeta potential (mV) [3]: 0.0 mV

CCCCCCCC(CCCCCCC)C(=O)OCCN(CCOC(=O)C(CCCCCCC)CCCCCCC)C(=O)C(C)N (centres unmarked) [Compound 611]
Encapsulation Efficiency % [1, 17]: 99.3%
Encapsulation Efficiency % [1, 21]: 98.4%
PDI [2, 17]: 0.24
PDI [2, 21]: 0.244
Size [2, 21]: 55.6 nm
Size [2, 18]: 155.4 nm
Zeta potential [3, 19]: −5.841 mV
Zeta potential [3, 22]: −5.555 mV

CCCCCCCCCC(CCCCCCCCC)C(=O)OCCN(CCOC(=O)C(CCCCCCCCC)CCCCCCCCC)C(=O)CN [Compound 607]
Encapsulation Efficiency % [1, 17]: 99.7%
Size [2, 18]: 68.9 nm
Zeta potential [3, 19]: −12.44 mV

CCCCCC(CCCCC)C(=O)OCCN(CCOC(=O)C(CCCCC)CCCCC)C(=O)C(N)Cc1ccccc1 (centres unmarked) [Compound 615]
Encapsulation Efficiency % [1, 17]: 98.7%
PDI [2, 17]: 0.408
Size [2, 18]: 104.2 nm
Zeta potential [3, 19]: −11.83 mV

CCCCCCCC(CCCCCCC)C(=O)OCCN(CCOC(=O)C(CCCCCCC)CCCCCCC)C(=O)CN(C)C.Cl [Compound 962]
Encapsulation Efficiency % [1, 12]: 99.6%
PDI [2, 12]: 0.132
Size [2, 13]: 74.9 nm
Zeta potential [3, 14]: −30.33 mV

CCCCCCCCC(CCCCCC)C(=O)OCCN(CCOC(=O)C(CCCCCC)CCCCCCCC)C(=O)C(C)CCN(CC)CC.Cl (centres unmarked) [Compound 987g]
Encapsulation Efficiency % [1, 20]: 95.4%
PDI [2, 20]: 0.097
Size (nm) [2, 20]: 70.5 nm
Zeta potential (mV) [3]: −3.5 mV

CCCCCCCCC(CCCCCC)C(=O)OCCN(CCOC(=O)C(CCCCCC)CCCCCCCC)C(=O)C(C)CCN(C)CCO.Cl (centres unmarked) [Compound 987p]
Encapsulation Efficiency % [1, 20]: 99.2%
PDI [2, 20]: 0.114
Size (nm) [2, 20]: 74.2 nm
Zeta potential (mV) [3]: −1.5 mV

CCCCCCCCC(CCCCCC)C(=O)OCCN(CCOC(=O)C(CCCCCC)CCCCCCCC)C(=O)CCN(C)C (centres unmarked) [Compound 808]
Encapsulation Efficiency % [1, 7]: 97%
Encapsulation Efficiency % [1, 8]: 99.2%
Encapsulation Efficiency % [1, 23]: 99.5%
Encapsulation Efficiency % [1, 24]: 99.7%
Encapsulation Efficiency % [1, 25]: 99.6%
Encapsulation Efficiency % [1, 26]: 98.8%
Encapsulation Efficiency % [1, 27]: 99.5%
Encapsulation Efficiency % [1, 28]: 98.8%
PDI [2, 7]: 0.114
PDI [2, 8]: 0.012
Size [2, 8]: 131.4 nm
Size [2, 9]: 96.3 nm
PDI [2, 23]: 0.113
Size [2, 23]: 120.1 nm
PDI [2, 24]: 0.105
Size [2, 24]: 79.1 nm
PDI [2, 25]: 0.033
Size [2, 25]: 93.8 nm
PDI [2, 26]: 0.131
Size [2, 26]: 99.1 nm
PDI [2, 27]: 0.214
Size [2, 27]: 134.5 nm
PDI [2, 28]: 0.13
Size ([2]; Table 7, LNP ionizable lipid:Helper Lipid:Cholesterol:DMG-PEG2k 50:10:38.5:1.5 mol %, helper lipid DSPC, hEPO mRNA, N:P 6): 114.4 nm
Zeta potential [3, 10]: −0.3 mV
Zeta potential [3, 11]: −0.4 mV
Zeta potential ([3]; Table 7, LNP 30:10:58.5:1.5 mol %, helper lipid DOPC): −9.115 mV
Zeta potential ([3]; Table 7, LNP 30:10:58.5:1.5 mol %, helper lipid DOPE): −10.16 mV
Zeta potential ([3]; Table 7, LNP 30:10:58.5:1.5 mol %, helper lipid DSPC): −7.184 mV
Zeta potential ([3]; Table 7, LNP 50:10:38.5:1.5 mol %, helper lipid DOPC): −8.233 mV
Zeta potential ([3]; Table 7, LNP 50:10:38.5:1.5 mol %, helper lipid DOPE): −7.52 mV
Zeta potential ([3]; Table 7, LNP 50:10:38.5:1.5 mol %, helper lipid DSPC): −7.7 mV

CCCCCCCCCC(=O)OCCN(CCOC(=O)CCCCCCCCC)C(=O)C(N)Cc1c[nH]cn1 (centres unmarked) [Compound 128]
Encapsulation Efficiency % [1, 15]: 95.2%
PDI [2, 15]: 0.058
Size [2, 15]: 77.8 nm
Zeta potential [3, 16]: 6.43 mV

CCCCCCCCC(CCCCCC)C(=O)OCCN(CCOC(=O)C(CCCCCC)CCCCCCCC)C(=O)CNCCO (centres unmarked) [Compound 305]
Encapsulation Efficiency % [1, 29]: 99.3%
Encapsulation Efficiency % [1, 17]: 99.5%
Encapsulation Efficiency % [1, 21]: 99.5%
PDI [2, 29]: 0.051
Size ([2]; Table 3, LNP lipid:DSPC:Cholesterol:DMG-PEG2k 50:10:38.5:1.5 mol %, hEPO mRNA, N:P 6): 53.3 nm
PDI [2, 17]: 0.05
PDI [2, 21]: 0.098
Size [2, 21]: 52.7 nm
Size [2, 18]: 59.3 nm
Zeta potential [3, 19]: −0.5189 mV
Zeta potential [3, 22]: −2.027 mV
